{"source": "patent US20180153995A1", "about": "“USE OF ANTIMICROBIAL POLYMERS FOR RE-SENSITIZATION OF MICROORGANISMS UPON EMERGENCE OF RESISTANCE TO ANTI-MICROBIAL AGENTS” (Technion Research & Development Foundation Limited, priority 2008, published 2018)", "key": {"[1]": {"tested_on": "MRSA 15903", "assay": "microbe, parasite or virus in culture", "format": "cell-based, Staphylococcus aureus", "procedure,_shortened": "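Values are FIC indexes, summing each agent's MIC in combination divided by its MIC alone, for MRSA 15903. Interpretation: <0.5 clear re-sensitization, 0.5 to 4 marginal or none, >4 antagonistic.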"}, "[2]": {"tested_on": "S. aureus 43300", "assay": "Antibiotic MIC by microdilution with or without sub-MIC polymer", "format": "cell-based, Staphylococcus aureus"}, "[3]": {"tested_on": "S. aureus 15877", "assay": "Antibiotic MIC by microdilution with or without sub-MIC polymer", "format": "cell-based, Staphylococcus aureus", "protocol": "MICs were determined by microdilution susceptibility testing in 96-well plates (by Nunc) using inocula of 10^5 bacteria per ml. Cell populations were evaluated by optical density measurements at 620 nm and were calibrated against a set of standards. Hundred (100) μl of a bacterial suspension were added to 100 μl of culture medium (control) or to 100 μl of culture medium containing various polymer concentrations in 2-fold serial dilutions. Inhibition of proliferation was determined by optical density measurements at 620 nm after an incubation period of 24 hours at 37° C.\nMICs were determined by microdilution susceptibility testing in 96-well plates (Nunc) using inocula of 10^5 bacteria per ml. One hundred (100) μl of a bacterial suspension were added to 100 μl of culture medium (control) or to 100 μl of culture medium containing various antibiotic and C12(5-ene)KKNC12KNH2 (SEQ ID NO: 2) concentrations in 2-fold serial dilutions. Inhibition of proliferation was determined by optical density measurements at 620 nm after an incubation period of 24 hours at 37° C."}, "[4]": {"tested_on": "S. aureus 17314", "assay": "Antibiotic MIC by microdilution with or without sub-MIC polymer", "format": "cell-based, Staphylococcus aureus"}, "[5]": {"tested_on": "E. coli 14384", "assay": "Antibiotic MIC by microdilution with or without sub-MIC polymer", "format": "cell-based, Escherichia coli", "procedure,_shortened": "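Bacterial suspension (10^5 per ml) was added to medium carrying serially diluted antibiotic and the lipopeptide […]. After 24 hours at 37° C, proliferation was measured at 620 nm. The MIC was taken from this optical density read-out.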"}, "[6]": {"tested_on": "E. coli 16327", "assay": "microbe, parasite or virus in culture"}, "[7]": {"conditions": "+½ MIC (3.12 μM) C12(5-ene)KKNC12KNH2"}}, "note": "Like-named read-outs stand apart in the source and are kept apart here.", "data": [{"smiles": "CC1(C)S[C@@H]2[C@H](NC(=O)Cc3ccccc3)C(=O)N2[C@H]1C(=O)O", "note": "[Penicillin G, penicillin G]", "values": [{"measurement": "MIC", "setting": "[1]; MRSA 15903, +¼ polymer MIC (1.6 μM) NC12(KNC12K)2NH2", "value": 8, "unit": "µg/mL"}, {"measurement": "MIC", "setting": "[1]; MRSA 15903, +½ polymer MIC (3.1 μM) NC12(KNC12K)2NH2", "value": 1, "unit": "µg/mL"}, {"measurement": "MIC", "setting": "[1]; MRSA 15903, +⅓ polymer MIC (2.1 μM) NC12(KNC12K)2NH2", "value": 2, "unit": "µg/mL"}, {"measurement": "MIC", "setting": "[1]; MRSA 15903, antibiotic alone", "value": 64, "unit": "µg/mL"}, {"measurement": "MIC, Alone", "setting": "[1]; MRSA 15903, antibiotic alone (Table 22)", "value": 64, "unit": "µg/mL"}, {"measurement": "MIC, ¼ + MIC OAK", "setting": "[1]; MRSA 15903, with C12K(KNC10K)3NH2 (SEQ ID NO: 10) at ¼ of its MIC", "value": 64, "unit": "µg/mL"}, {"measurement": "MIC, ½ + MIC OAK", "setting": "[1]; MRSA 15903, with C12K(KNC10K)3NH2 (SEQ ID NO: 10) at ½ of its MIC", "value": "4 to 16", "unit": "µg/mL"}, {"measurement": "MIC, ⅓ + MIC OAK", "setting": "[1]; MRSA 15903, with C12K(KNC10K)3NH2 (SEQ ID NO: 10) at ⅓ of its MIC", "value": 64, "unit": "µg/mL"}, {"measurement": "MIC", "setting": "[1]; S. aureus CI-15903, +polymer (¼ MIC) C12(5-ene)KKNC12KNH2", "value": 32, "unit": "µg/mL"}, {"measurement": "MIC", "setting": "[1]; S. aureus CI-15903, +polymer (½ MIC) C12(5-ene)KKNC12KNH2", "value": 0.25, "unit": "µg/mL"}, {"measurement": "MIC", "setting": "[1]; S. aureus CI-15903, +polymer (⅓ MIC) C12(5-ene)KKNC12KNH2", "value": 4, "unit": "µg/mL"}, {"measurement": "MIC", "setting": "[1]; S. aureus CI-15903, alone", "value": 64, "unit": "µg/mL"}, {"measurement": "Antibiotic MIC", "setting": "[2]; +¼ MIC (1.6 μM) C14(9-ene)KKNC12KNH2", "value": 4, "unit": "µg/mL"}, {"measurement": "Antibiotic MIC", "setting": "[2]; [7]", "value": 0.03, "unit": "µg/mL"}, {"measurement": "Antibiotic MIC", "setting": "[2]; +½ MIC (3.12 μM) C14(9-ene)KKNC12KNH2", "value": 2, "unit": "µg/mL"}, {"measurement": "Antibiotic MIC", "setting": "[2]; +⅓ MIC (2.1 μM) C14(9-ene)KKNC12KNH2", "value": 4, "unit": "µg/mL"}, {"measurement": "Antibiotic MIC", "setting": "[2]; no polymer (None), Table 8", "value": 4, "unit": "µg/mL"}, {"measurement": "Antibiotic MIC", "setting": "[2]; no polymer (None), Table 9", "value": 4, "unit": "µg/mL"}, {"measurement": "Antibiotic MIC", "setting": "[2]; no polymer (None), Table 10", "value": 4, "unit": "µg/mL"}, {"measurement": "Antibiotic MIC", "setting": "[2]; no polymer (None), Table 11", "value": 8, "unit": "µg/mL"}, {"measurement": "Antibiotic MIC", "setting": "[2]; no polymer (None), Table 12", "value": 8, "unit": "µg/mL"}, {"measurement": "Antibiotic MIC", "setting": "[3]; +¼ MIC (1.6 μM) C12(5-ene)KKNC12KNH2", "value": 8, "unit": "µg/mL"}, {"measurement": "Antibiotic MIC", "setting": "[3]; [7]", "value": 8, "unit": "µg/mL"}, {"measurement": "Antibiotic MIC", "setting": "[3]; +⅓ MIC (2.1 μM) C12(5-ene)KKNC12KNH2", "value": 8, "unit": "µg/mL"}, {"measurement": "Antibiotic MIC", "setting": "[3]; no polymer (None), Table 8", "value": 8, "unit": "µg/mL"}, {"measurement": "Antibiotic MIC", "setting": "[4]", "value": "64 to 128", "unit": "µg/mL"}, {"measurement": "Antibiotic MIC", "setting": "[4]; S. aureus 17314, +¼ MIC (1.6 μM) C12K(KNC12K)2NH2", "value": 128, "unit": "µg/mL"}, {"measurement": "Antibiotic MIC", "setting": "[4]; S. aureus 17314, +¼ MIC (1.6 μM) C14(9-ene)KKNC12KNH2", "value": 8, "unit": "µg/mL"}, {"measurement": "Antibiotic MIC", "setting": "[4]; S. aureus 17314, +¼ MIC (1.6 μM) C16(9-ene)KKNC12KNH2", "value": 2, "unit": "µg/mL"}, {"measurement": "Antibiotic MIC", "setting": "[4]; S. aureus 17314, +½ MIC (3.12 μM) C12K(KNC12K)2NH2", "value": 64, "unit": "µg/mL"}, {"measurement": "Antibiotic MIC", "setting": "[4]; S. aureus 17314, +½ MIC (3.12 μM) C12KKNC12KNH2", "value": 64, "unit": "µg/mL"}, {"measurement": "Antibiotic MIC", "setting": "[4]; S. aureus 17314, +½ MIC (3.12 μM) C14(9-ene)KKNC12KNH2", "value": 6, "unit": "µg/mL"}, {"measurement": "Antibiotic MIC", "setting": "[4]; S. aureus 17314, +½ MIC (3.12 μM) C16(9-ene)KKNC12KNH2", "value": 0.5, "unit": "µg/mL"}, {"measurement": "Antibiotic MIC", "setting": "[4]; S. aureus 17314, +⅓ MIC (2.1 μM) C12K(KNC12K)2NH2", "value": 128, "unit": "µg/mL"}, {"measurement": "Antibiotic MIC", "setting": "[4]; S. aureus 17314, +⅓ MIC (2.1 μM) C14(9-ene)KKNC12KNH2", "value": 8, "unit": "µg/mL"}, {"measurement": "Antibiotic MIC", "setting": "[4]; S. aureus 17314, +⅓ MIC (2.1 μM) C16(9-ene)KKNC12KNH2", "value": 1, "unit": "µg/mL"}, {"measurement": "Antibiotic MIC", "setting": "[4]; S. aureus 17314, no polymer (None), Table 9", "value": 8, "unit": "µg/mL"}, {"measurement": "Antibiotic MIC", "setting": "[4]; S. aureus 17314, no polymer (None), Table 10", "value": "8 to 16", "unit": "µg/mL"}, {"measurement": "Antibiotic MIC", "setting": "[4]; S. aureus 17314, no polymer (None), Table 11", "value": 128, "unit": "µg/mL"}, {"measurement": "Antibiotic MIC", "setting": "[4]; S. aureus 17314, no polymer (None), Table 12", "value": 128, "unit": "µg/mL"}, {"measurement": "Antibiotic MIC", "setting": "[5]", "value": 512, "unit": "µg/mL"}, {"measurement": "Antibiotic MIC", "setting": "[5]; E. coli 14384, +½ MIC C12K(NC8K)5NH2", "value": ">512", "unit": "µg/mL"}, {"measurement": "Antibiotic MIC, None", "setting": "[5]; E. coli 14384, antibiotic alone (Table 15)", "value": ">512", "unit": "µg/mL"}, {"measurement": "Antibiotic MIC", "setting": "[5]; E. coli 14384, no polymer (None), Table 9", "value": 512, "unit": "µg/mL"}, {"measurement": "Antibiotic MIC", "setting": "[5]; E. coli 14384, no polymer (None), Table 14", "value": ">512", "unit": "µg/mL"}, {"measurement": "Antibiotic MIC in presence of C12K(NC8K)7NH2 (SEQ ID NO: 4), +¼ MIC", "setting": "[5]; E. coli 14384, polymer at ¼ of its MIC", "value": ">512", "unit": "µg/mL"}, {"measurement": "Antibiotic MIC in presence of C12K(NC8K)7NH2 (SEQ ID NO: 4), +½ MIC", "setting": "[5]; E. coli 14384, polymer at ½ of its MIC", "value": ">512", "unit": "µg/mL"}, {"measurement": "Antibiotic MIC in presence of C12K(NC8K)7NH2 (SEQ ID NO: 4), +⅓ MIC", "setting": "[5]; E. coli 14384, polymer at ⅓ of its MIC", "value": ">512", "unit": "µg/mL"}, {"measurement": "Antibiotic MIC", "setting": "[6]", "value": ">512", "unit": "µg/mL"}]}]}
